The target in data set [1] is beta-glucosidases enzyme from Aspergillus niger (Aspergillus niger, UniProt A2RAL4). Particulars: 100 μM, 1 μM enzyme, 50 Celsius degree, pH 5.5; after instant (less then 5 minutes) incubation. As for the experimental part: The volume of reaction was set at 500 μl and carried in 2 ml gas tight tubes, shacked constantly at 800 rpm, and the hydrolysis was sampled 100 μl after 5 minutes, 30 minutes and 60 minutes. The hydrolysates were analysed by HPAEC analytics according to Westereng et al. 2013 (vide supra).
beta-glucosidases enzyme from Aspergillus niger, sequence (A2RAL4 20-860): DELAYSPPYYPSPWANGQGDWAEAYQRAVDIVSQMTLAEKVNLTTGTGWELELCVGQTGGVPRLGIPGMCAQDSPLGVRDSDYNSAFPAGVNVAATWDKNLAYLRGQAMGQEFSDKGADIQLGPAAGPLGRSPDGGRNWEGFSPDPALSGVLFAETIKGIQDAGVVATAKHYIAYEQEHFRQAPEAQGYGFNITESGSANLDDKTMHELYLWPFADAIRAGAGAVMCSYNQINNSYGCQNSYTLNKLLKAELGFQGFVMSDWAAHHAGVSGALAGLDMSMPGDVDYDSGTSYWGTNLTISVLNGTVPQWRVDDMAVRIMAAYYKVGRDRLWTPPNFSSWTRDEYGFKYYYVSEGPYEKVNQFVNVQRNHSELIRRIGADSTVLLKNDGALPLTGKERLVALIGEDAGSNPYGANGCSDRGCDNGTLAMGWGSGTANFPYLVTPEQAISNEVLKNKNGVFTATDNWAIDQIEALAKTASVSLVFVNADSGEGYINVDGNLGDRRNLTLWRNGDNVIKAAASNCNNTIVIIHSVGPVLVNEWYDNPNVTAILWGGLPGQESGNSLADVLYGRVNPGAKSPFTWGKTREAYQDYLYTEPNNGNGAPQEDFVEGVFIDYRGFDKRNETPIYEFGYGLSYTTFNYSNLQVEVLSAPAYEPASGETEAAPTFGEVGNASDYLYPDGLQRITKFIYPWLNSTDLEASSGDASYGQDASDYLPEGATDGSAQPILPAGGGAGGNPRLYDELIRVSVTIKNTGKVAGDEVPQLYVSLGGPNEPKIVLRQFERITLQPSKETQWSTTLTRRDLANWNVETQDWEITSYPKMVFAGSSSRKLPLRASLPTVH

Data set [2] concerns Ethylene production. Put plainly: Ethylene emanation of Arabidopsis seedlings (ETD 300 detector). The class given is in vivo, Arabidopsis thaliana. As to conditions: 100 μM sprayed; 3 weeks in vitro seedlings. As for the experimental part:
Ethylene production was analysed in three independent experiments with the ETD 300 detector (Sensor-Sense, Nijmegen, the Netherlands) under a stop-and-flow routine where the gas from one vial accumulated in an interval of 10 min, and then flushed to the detector. Bars in FIG. 15 represent mean and standard deviation.

Here are results for 2 compounds from patent US12628822B2, “Plant pathogen defence elicitors” (UNIVERSITÉ LIBRE DE BRUXELLES, priority 2020, dated 2026).

Take `O=C1C(CO)OC(OC2C(CO)OC(O)C(O)C2O)C(O)C1O` (stereo not drawn) [4-keto-cellobiose]: the “resistance to digestion by beta-glucosidases” value in data set [1] was “able to resist the digestion”. In the case of `O=C(O)[C@H](O)[C@@H](O)[C@H](O[C@@H]1O[C@H](CO)[C@@H](O)[C@H](O)[C@H]1O)[C@H](O)CO` [cellobionic acid, 4-O-β-D-glucopyranosyl-D-gluconic acid], the “Ethylene production versus mock-treated seedlings” value in data set [2] is “higher”. Further, the “resistance to digestion by beta-glucosidases” value in data set [1] is “able to resist the digestion”.
